Assay results as given in US8309581B2, “Benzimidazole derivatives” (Hoffmann-La Roche Inc., priority 2009, dated 2012).

biological target: T1, FXR ligand binding domain (Homo sapiens, UniProt Q96RI1); test: Radioligand Binding Assay (scintillation proximity radioligand displacement); settings: GST-FXR LBD fusion protein on SPA beads, test compound 6×10^−9 M to 2.5×10^−5 M
T1 construct: made in house; host or cells: E. coli BL21 (pLysS)
T1 sequence (Q96RI1 193-472 isoform Q96RI1-2): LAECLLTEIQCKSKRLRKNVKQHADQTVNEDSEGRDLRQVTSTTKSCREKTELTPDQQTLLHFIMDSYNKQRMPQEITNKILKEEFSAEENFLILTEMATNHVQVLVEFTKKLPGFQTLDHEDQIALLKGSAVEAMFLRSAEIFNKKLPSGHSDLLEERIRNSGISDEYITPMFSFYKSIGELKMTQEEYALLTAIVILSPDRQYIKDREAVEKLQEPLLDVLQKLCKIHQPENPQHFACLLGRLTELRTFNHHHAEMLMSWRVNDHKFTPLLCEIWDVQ
How it was run: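 GST-fused human FXR LBD (aa 193-473, E. coli-expressed, 40 nM) was bound to glutathione SPA beads in 50 mM Hepes pH 7.4, 10 mM NaCl, 5 mM MgCl2, 0.01% CHAPS. Displacement of radioligand (e.g. 20 nM) was measured over 6×10^−9 to 2.5×10^−5 M compound, and IC50 calculated.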

IC50 | SMILES
30 nM | O=C(O)c1ccc(CCc2ccccc2-c2nc3cc(F)c(F)cc3n2CC2CCCCC2)cc1 [Example 77, 4-{2-[2-(1-Cyclohexylmethyl-5,6-difluoro-1H-benzoimidazol-2-yl)-phenyl]-ethyl}-benzoic acid]
40 nM | Fc1cc2nc(-c3ccccc3OCC3CCCC3)n(Cc3ccc(-c4nnn[nH]4)cc3F)c2cc1F [Example 94, 2-(2-Cyclopentylmethoxy-phenyl)-5,6-difluoro-1-[2-fluoro-4-(1H-tetrazol-5-yl)-benzyl]-1H-benzoimidazole]
0.6 nM | O=C(Nc1cc(Cl)ccc1-c1nc2cc(F)c(F)cc2n1CC1CCCCC1)c1ccc(-c2nnn[nH]2)c(F)c1 [Example 85, N-[5-Chloro-2-(1-cyclohexylmethyl-5,6-difluoro-1H-benzoimidazol-2-yl)-phenyl]-3-fluoro-4-(1H-tetrazol-5-yl)-benzamide]

The remaining lines, values behind:

SMILES | IC50
O=C(O)CCc1ccc(Cn2c(-c3cccnc3OCC3CCCC3)nc3cc(F)c(F)cc32)cc1 [Example 18, 3-{4-[2-(2-Cyclopentylmethoxy-pyridin-3-yl)-5,6-difluoro-benzoimidazol-1-ylmethyl]-phenyl}-propionic acid] | 30400 nM
Fc1cc2nc(-c3cccnc3OCc3ccccc3Cl)n(Cc3cccc(Cl)c3)c2cc1F [Example 11, 1-(3-Chloro-benzyl)-2-[2-(2-chloro-benzyloxy)-pyridin-3-yl]-5,6-difluoro-1H-benzoimidazole] | 800 nM
Fc1cc2nc(-c3ccc(Cl)cc3OCC3CCCC3)n(Cc3ccc(-c4nnn[nH]4)cc3F)c2cc1F [Example 70, 2-(4-Chloro-2-cyclopentylmethoxy-phenyl)-5,6-difluoro-1-[2-fluoro-4-(1H-tetrazol-5-yl)-benzyl]-1H-benzoimidazole] | 10 nM
Fc1cc2nc(-c3ccc(Cl)cc3OCc3ccccc3Cl)n(CC3CCCCC3)c2cc1F [Example 19, 2-[4-Chloro-2-(2-chloro-benzyloxy)-phenyl]-1-cyclohexylmethyl-5,6-difluoro-1H-benzoimidazole] | 300 nM
Fc1cc2nc(-c3ccc(Cl)cc3OCc3cccc(-c4nnn[nH]4)c3)n(CC3CCCCC3)c2cc1F [Example 30, 2-{4-Chloro-2-[3-(1H-tetrazol-5-yl)-benzyloxy]-phenyl}-1-cyclohexylmethyl-5,6-difluoro-1H-benzoimidazole] | 400 nM
COc1cc(-c2nnn[nH]2)ccc1COc1cc(Cl)ccc1-c1nc2cc(F)c(F)cc2n1CC1CCCCC1 [Example 35, 2-{4-Chloro-2-[2-methoxy-4-(1H-tetrazol-5-yl)-benzyloxy]-phenyl}-1-cyclohexylmethyl-5,6-difluoro-1H-benzoimidazole] | 50 nM
